Structures are written as SMILES. pKi: −log10 of the molar value. Several values for one entry are separate records, joined by “and”; a condition that tells them apart may be missing. Identical values can stand only once.

These results are taken from US20160102317A1, “PLANTS HAVING INCREASED TOLERANCE TO HERBICIDES” (BASF SE, priority 2013, published 2016).

The subject of assay [1] is Wild-type Arabidopsis plants. Kind of assay: Arabidopsis growth inhibition in 48-well plates, tolerance factor. As to conditions: plant growth IC50 relative to wild-type plants; Wild-type line. Format: in vivo, Arabidopsis thaliana. The procedure: Depending on the species, the plants are kept at 10-25° C. or 20-35° C. The test period extends over 3 weeks. During this time, the plants are tended and their response to the individual treatments is evaluated. Herbicide injury evaluations are taken at 2 and 3 weeks after treatment. Plant injury is rated on a scale of 0 to 9, 0 being no injury and 9 being complete death. Tolerance to HPPD-inhibiting herbicides can also be assessed in Arabidopsis. In this case transgenic Arabidopsis thaliana plants are assayed for improved tolerance to HPPD-inhibiting herbicides in 48-well plates. Seeds are surface sterilized by stirring for 5 min in ethanol+water (70+30 by volume), rinsing one time with ethanol+water (70+30 by volume) and two times with a sterile, deionized water. The seeds are resuspended in 0.1% agar dissolved in water (w/v). Four to five seeds per well are plated on solid nutrient medium consisting of half-strength Murashige Skoog nutrient solution, pH 5.8 (Murashige and Skoog (1962) Physiologia Plantarum 15: 473-497). […] Seven to ten days after seeding growth inhibition is evaluated by comparison to wild-type plants. Tolerance factor is calculated by dividing the plant growth IC50 value of transgenic plants containing a HPPD and/or HST sequence by that of wild-type plants.

The target of assay [2] is T1, Hordeum HPPD (SEQ ID NO:2), wild-type (Hordeum vulgare, UniProt O48604, A164G/R146V/R147D/R148G).
T1 construct: His (N); made in house; host or cells: E. coli BL21 (DE3)
T1 sequence (O48604 whole entry R146V/R147D/R148G/A164G): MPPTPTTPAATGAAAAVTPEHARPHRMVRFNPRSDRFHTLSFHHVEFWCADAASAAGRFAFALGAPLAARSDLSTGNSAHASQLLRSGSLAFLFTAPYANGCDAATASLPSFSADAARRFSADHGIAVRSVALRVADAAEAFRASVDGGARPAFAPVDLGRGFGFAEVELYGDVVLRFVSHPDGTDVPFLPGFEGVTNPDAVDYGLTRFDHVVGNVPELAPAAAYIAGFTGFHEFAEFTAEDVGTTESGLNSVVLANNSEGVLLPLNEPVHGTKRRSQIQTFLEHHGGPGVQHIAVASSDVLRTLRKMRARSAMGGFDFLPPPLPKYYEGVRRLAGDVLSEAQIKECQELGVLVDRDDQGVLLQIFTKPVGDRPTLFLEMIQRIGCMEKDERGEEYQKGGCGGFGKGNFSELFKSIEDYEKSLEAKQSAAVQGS
Kind of assay: HPPD activity assay (HGA by HPLC), wild-type enzyme characterization. Format: biochemical. The protocol:
(§1) HPPD produces homogentisic acid and CO2 from 4-hydroxyphenylpyruvate (4-HPP) and 02. The activity assay for HPPD is based on the analysis of homogentisic acid by reversed phase HPLC. The assay mixture can contain 150 mM potassium phosphate buffer pH 7.0, 50 mM L-ascorbic acid, 100 μM Catalase (Sigma-Aldrich), 1 μM FeSO4 and 0.2 units of purified HPPD enzyme in a total volume of 505 μl. 1 unit is defined as the amount of enzyme that is required to produce 1 nmol of HGA per minute at 20° C.
(§2) After a preincubation of 30 min the reaction is started by adding 4-HPP to a final concentration of 0.05 mM. The reaction is allowed to proceed for 45 min at room temperature. The reaction is stopped by the addition of 50 μl of 4.5 M phosphoric acid. The sample is filtered using a […] pore size PVDF filtration device.
(§3) 5 μl of the cleared sample is analyzed on an UPLC HSS T3 column (particle size 1.8 μm, dimensions 2.1×50 mm; Waters) by isocratic elution using 90% 20 mM NaH2PO4 pH 2.2, 10% methanol (v/v).
(§4) HGA is detected electrochemically at 750 mV (mode: DC; polarity: positive) and quantified by integrating peak areas (Empower software; Waters).
(§5) Inhibitors are dissolved in DMSO (dimethylsulfoxide) to a concentration of 0.5 mM. From this stock solution serial five-fold dilutions are prepared in DMSO, which are used in the assay. The respective inhibitor solution accounts for 1% of the assay volume. […] Activities are normalized by setting the uninhibited enzyme activity to 100%. IC50 values are calculated using non-linear regression.
Using methods which are described in the above examples or well known in the art, purified, recombinant wild-type HPPD enzymes are characterized with respect to their kinetic properties and sensitivity towards HPPD inhibiting herbicides. Apparent michaelis constants (Km) and maximal reaction velocities (Vmax) are calculated by non-linear regression with the software GraphPad Prism 5 (GraphPad Software, La Jolla, USA) using a substrate inhibition model. […] Weighted means (by standard error) of Km and IC50 values are calculated from at least three independent experiments.
Field performance of the HPPD enzyme, which is used as a herbicide tolerance trait, may depend not only on its lack of sensitivity towards HPPD inhibiting herbicides but also on its activity. To assess the potential performance of a herbicide tolerance trait a tolerance index (TI) is calculated using the following formula: […]
(§6) Easy comparison and ranking of each trait is enabled by normalizing tolerance indexes on Arabidopsis wild-type HPPD.

Assay [3] deals with T2, Hordeum HPPD (SEQ ID: 2) L320H, P321A (Hordeum vulgare, UniProt O48604, L320H/P321A).
T2 construct: His (N); made in house; host or cells: E. coli BL21 (DE3)
T2 sequence (O48604 whole entry R146V/R147D/R148G/A164G/L320H/P321A): as the sequence (O48604 whole entry R146V/R147D/R148G/A164G) above, with L320H, P321A counted along it
Kind of assay: HPPD activity assay, in vitro characterization of HPPD mutants. Format: biochemical. As to conditions: Table 16, Hordeum wild-type = 1. The protocol:
as §1, §2, §3, §4, §5
(§7) Purified, mutant HPPD enzymes are obtained by the methods described above. Dose response and kinetic measurements are carried out using the described HPPD activity assay. Apparent michaelis constants (Km) and maximal reaction velocities (Vmax) are calculated by non-linear regression with the software GraphPad Prism 5 (Graph Pad Software, La Jolla, USA) using a substrate inhibition model. […] Weighted means (by standard error) of Km and IC50 values are calculated from at least three independent experiments.
(§8) Field performance of the optimized HPPD enzyme, which is used as a herbicide tolerance trait may depend not only on its lack of sensitivity towards HPPD inhibiting herbicides but also on its activity. To assess the potential performance of a herbicide tolerance trait a tolerance index (TI) is calculated using the following formula: […]
as §6

Assay [4] concerns the target T3, Hordeum HPPD (SEQ ID: 2) F404L (Hordeum vulgare, UniProt O48604, A164G/F404L/R146V/R147D/R148G).
T3 construct: His (N); made in house; host or cells: E. coli BL21 (DE3)
The assay is described as above. The format is biochemical. The note with it: Table 16, Hordeum wild-type = 1. The protocol: as §1, §2, §3, §4, §5, §7, §8, §6

Assay [5] addresses T4, Hordeum HPPD (SEQ ID: 2) L320Q (Hordeum vulgare, UniProt O48604, A164G/L320Q/R146V/R147D/R148G).
T4 construct: His (N); made in house; host or cells: E. coli BL21 (DE3)
The assay is described as above. Format: biochemical. The note with it: Table 16, Hordeum wild-type = 1. The procedure:
as §1, §2, §3, §4, §5, §7, §8, §6

For another assay, the system named is Picrophilus HPPD. Kind of assay: HPPD activity assay, tolerance index. The format is biochemical, Picrophilus torridus. As to conditions: Table 12, normalized to reference SEQ ID NO:53. The protocol:
as §1, §2, §3, §4
Inhibitors are dissolved in DMSO (dimethylsulfoxide) to a concentration of 0.5 mM. From this stock solution serial five-fold dilutions are prepared in DMSO, which are used in the assay. […] IC50 values are calculated using non-linear regression. […]

Where [6] appears, read: Table 16, Hordeum HPPD variant Wild-type.

T3 sequence (O48604 whole entry R146V/R147D/R148G/A164G/F404L): as the sequence (O48604 whole entry R146V/R147D/R148G/A164G) above, with F404L counted along it
T4 sequence (O48604 whole entry R146V/R147D/R148G/A164G/L320Q): as the sequence (O48604 whole entry R146V/R147D/R148G/A164G) above, with L320Q counted along it

`Cc1c(C(=O)Nc2nnnn2C)ccc2c1C(=O)C(C)(C)CS2(=O)=O` [Inhibitor 2, 3,3,5-trimethyl-N-(1-methyltetrazol-5-yl)-1,1,4-trioxo-2H-thiochromene-6-carboxamide]: the “Tolerance factor towards Inhibitor 2” value in assay [1] is on record as 1. Moreover, the “TI Inhibitor 2 (normalized tolerance index)” value in assay [2] (setting [6]) is 1; in assay [3], 3.6; in assay [4] it was 3 and 3.1; in assay [5] it was 1.4.
Regarding `COc1no[nH]/c1=N/C(=O)c1ccc2c(c1Cl)S(=O)(=O)CCC2(C)C` [Inhibitor 1, (NE)-8-chloro-N-(4-methoxy-1,2,5-oxadiazol-3-ylidene)-4,4-dimethyl-1,1-dioxo-2,3-dihydrothiochromene-7-carboxamide], the “TI Inhibitor 1 (normalized tolerance index)” value was 0.4 in the assay with Picrophilus HPPD; 0.9 in assay [2] (Table 12, Hordeum HPPD, normalized to reference SEQ ID NO:53); 1 in assay [2] (setting [6]); 0.5 in assay [3]; 2.1 in assay [4]; 0.1 in assay [5]. The “Tolerance factor towards Inhibitor 1” value in assay [1] is recorded as 1. For the same compound, the pKi in assay [2] was 7.42.
